Data published in US20250101038A1, “COMPOUNDS” (priority 2021, published 2025).

What was measured:
[1] = molecular target: T1, 5-HT2A receptor (Homo sapiens, UniProt P28223); assay: FLIPR Ca2+ flux functional assay, 5-HT2A; format: cell-based; conditions: agonist activity, Ca2+ flux, HEK293 cells; for EC50: read-out: 5-HT2A EC50
T1 construct: host or cells: HEK293
Procedure: Activity at 5-HT2A, 5-HT2B and 5-HT2C receptors was determined using a FLIPR Ca^2+ flux assay at WuXi AppTec Co. Ltd. (Hong Kong) Discovery Biology Unit according to their standard protocols. Briefly, stably transfected cells expressing the receptor of interest (HEK293 for 5-HT2A and 5-HT2C; CHO-K1 for 5-HT2B) were grown and plated in a 384 well plate and incubated at 37° C. and 5% CO2 overnight. A 250 mM stock solution of probenecid in FLIPR calcium assay buffer (10 mL) was freshly prepared and combined with a fluorescent dye (Fluo-4 Direct) to give a final assay concentration of 2.5 mM. Reference compounds were 4-fold serially diluted and the screening compounds were 3-fold serially diluted in 100% DMSO for 10 points using Agilent Bravo, and 750 nL was added to a 384 well compound plate using Echo along with 30 μL assay buffer. The fluorescent dye was then added to the assay plate along with assay buffer to a final volume of […]. The cell plate was incubated for 50 min at 37° C. and 5% CO2 and placed into the FLIPR Tetra along with the compound plate. 10 μL of references and compounds were then transferred from the compound plate into the cell plate and the fluorescent signal was read.

[2] = molecular target: T2, 5-HT2C receptor (Homo sapiens, UniProt P28335); assay: cell-based; conditions: agonist activity, Ca2+ flux, HEK293 cells; for EC50: read-out: 5-HT2C EC50
T2 construct: host or cells: HEK293
T2 sequence (P28335 33-458): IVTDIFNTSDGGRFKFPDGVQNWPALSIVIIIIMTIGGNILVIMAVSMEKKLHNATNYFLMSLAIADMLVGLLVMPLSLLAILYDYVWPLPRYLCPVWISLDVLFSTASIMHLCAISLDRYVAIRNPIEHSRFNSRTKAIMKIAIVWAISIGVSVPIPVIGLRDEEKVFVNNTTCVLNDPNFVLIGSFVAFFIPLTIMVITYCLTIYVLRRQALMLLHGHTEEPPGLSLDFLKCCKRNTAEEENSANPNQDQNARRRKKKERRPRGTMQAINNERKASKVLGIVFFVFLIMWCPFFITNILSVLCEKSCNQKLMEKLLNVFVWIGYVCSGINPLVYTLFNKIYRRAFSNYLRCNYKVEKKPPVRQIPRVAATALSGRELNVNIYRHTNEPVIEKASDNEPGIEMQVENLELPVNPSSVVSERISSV

[3] = molecular target: T3, 5-HT2B receptor (Homo sapiens, UniProt P41595); assay: cell-based; conditions: agonist activity, Ca2+ flux, CHO-K1 cells; for EC50: read-out: 5-HT2B EC50
T3 construct: host or cells: CHO-K1
T3 sequence (P41595 whole entry): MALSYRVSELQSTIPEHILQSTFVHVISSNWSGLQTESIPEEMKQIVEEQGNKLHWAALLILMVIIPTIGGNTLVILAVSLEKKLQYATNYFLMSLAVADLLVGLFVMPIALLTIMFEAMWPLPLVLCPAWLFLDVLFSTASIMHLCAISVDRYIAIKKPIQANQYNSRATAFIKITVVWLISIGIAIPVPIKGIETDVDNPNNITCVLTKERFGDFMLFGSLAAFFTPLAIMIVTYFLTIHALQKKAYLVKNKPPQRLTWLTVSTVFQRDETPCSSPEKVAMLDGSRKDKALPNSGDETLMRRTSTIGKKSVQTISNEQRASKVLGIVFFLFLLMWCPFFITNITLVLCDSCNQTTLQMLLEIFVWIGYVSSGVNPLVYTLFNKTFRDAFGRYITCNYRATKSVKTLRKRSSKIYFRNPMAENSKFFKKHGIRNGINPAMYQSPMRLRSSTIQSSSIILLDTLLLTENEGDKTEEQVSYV

T1 sequence (P28223 whole entry): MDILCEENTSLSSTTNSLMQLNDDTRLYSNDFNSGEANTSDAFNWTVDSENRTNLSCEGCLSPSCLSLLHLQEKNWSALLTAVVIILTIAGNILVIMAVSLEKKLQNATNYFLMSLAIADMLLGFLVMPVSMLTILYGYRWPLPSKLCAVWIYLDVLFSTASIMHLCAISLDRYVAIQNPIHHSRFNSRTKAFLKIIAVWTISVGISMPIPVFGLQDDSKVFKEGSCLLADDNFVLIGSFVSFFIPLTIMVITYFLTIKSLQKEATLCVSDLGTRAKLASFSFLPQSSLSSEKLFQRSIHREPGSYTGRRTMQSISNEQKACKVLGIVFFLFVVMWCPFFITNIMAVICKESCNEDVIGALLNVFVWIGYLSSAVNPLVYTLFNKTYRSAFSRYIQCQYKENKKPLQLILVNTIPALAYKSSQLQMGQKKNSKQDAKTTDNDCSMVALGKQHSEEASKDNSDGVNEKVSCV

COc1cc2c(CCN(C)C(C)C)c[nH]c2cc1C [Example P-44, N-(2-(5-methoxy-6-methyl-1H-indol-3-yl)ethyl)-N-methylpropan-2-amine]
Emax [1]: 72.6%
Emax [2]: 70.8%
Emax [3]: 7.11%

CCN(CC)CCc1c[nH]c2cc(C)c(OC)cc12 [Example P-45, N,N-diethyl-2-(5-methoxy-6-methyl-1H-indol-3-yl)ethan-1-amine]
5-HT2A Emax [1]: 81.54%
EC50 [1]: 78.2 nM
5-HT2C Emax [2]: 84.59%
EC50 [2]: 700 nM
5-HT2B Emax [3]: 23.83%
EC50 [3]: 846 nM

CCCN(CC)CCc1c[nH]c2cc(C)c(OC)cc12 [Example P-46, N-ethyl-N-(2-(5-methoxy-6-methyl-1H-indol-3-yl)ethyl)propan-1-amine]
5-HT2A Emax [1]: 86.81%
EC50 [1]: 33.3 nM
5-HT2C Emax [2]: 82.79%
EC50 [2]: 778 nM
5-HT2B Emax [3]: 37.67%
EC50 [3]: 524 nM

CCN(CCc1c[nH]c2cc(C)c(OC)cc12)C(C)C [Example P-47, N-ethyl-N-(2-(5-methoxy-6-methyl-1H-indol-3-yl)ethyl)propan-2-amine]
Emax [1]: 64.7%
Emax [2]: 80.8%
Emax [3]: 43.2%

CCCN(CCC)CCc1c[nH]c2cc(C)c(OC)cc12 [Example P-48, N,N-dipropyl-2-(5-methoxy-6-methyl-1H-indol-3-yl)ethan-1-amine]
Emax [1]: 77.5%
Emax [2]: 74%
Emax [3]: 56.8%

COc1cc2c(CCN(C(C)C)C(C)C)c[nH]c2cc1C [Example P-49, N-isopropyl-N-(2-(5-methoxy-6-methyl-1H-indol-3-yl)ethyl)propan-2-amine]
Emax [1]: 83.5%
Emax [2]: 87%
Emax [3]: 74.8%

COc1cc(C)c2[nH]cc(CCN(C)C)c2c1 [Example P-50, 2-(5-methoxy-7-methyl-1H-indol-3-yl)-N,N-dimethylethan-1-amine]
Emax [1]: 66.2%
EC50 [1]: 64 nM
Emax [2]: 56.4%
EC50 [2]: 538 nM
Emax [3]: 0.5%
EC50 [3]: > 10000 nM

CCCN(C)CCc1c[nH]c2c(C)cc(OC)cc12 [Example P-52, N-(2-(5-methoxy-7-methyl-1H-indol-3-yl)ethyl)-N-methylpropan-1-amine]
Emax [1]: 58%
EC50 [1]: 161 nM
Emax [2]: 44.5%
EC50 [2]: 529 nM
Emax [3]: 1.37%
EC50 [3]: > 10000 nM

CCN(CC)CCc1c[nH]c2c(C)cc(OC)cc12 [Example P-54, N, N-diethyl-2-(5-methoxy-7-methyl-1H-indol-3-yl)ethan-1-amine]
Emax [1]: 82.8%
EC50 [1]: 249 nM
Emax [2]: 58%
EC50 [2]: 1750 nM
Emax [3]: 7.69%
EC50 [3]: > 10000 nM

CCCN(CC)CCc1c[nH]c2c(C)cc(OC)cc12 [Example P-55, N-ethyl-N-(2-(5-methoxy-7-methyl-1H-indol-3-yl)ethyl)propan-1-amine]
Emax [1]: 81.8%
EC50 [1]: 134 nM
Emax [2]: 57.9%
EC50 [2]: 1810 nM
Emax [3]: 13.2%
EC50 [3]: > 10000 nM

CCCN(CCC)CCc1c[nH]c2c(C)cc(OC)cc12 [Example P-57, N, N-dipropyl-2-(5-methoxy-7-methyl-1H-indol-3-yl)ethan-1-amine]
Emax [1]: 79.2%
EC50 [1]: 140 nM
Emax [2]: 30.7%
EC50 [2]: 2860 nM
Emax [3]: 9.45%
EC50 [3]: > 10000 nM

COc1cc(C)c2[nH]cc(CCN(C(C)C)C(C)C)c2c1 [Example P-58, N-isopropyl-N-(2-(5-methoxy-7-methyl-1H-indol-3-yl)ethyl)propan-2-amine]
Emax [1]: 84%
EC50 [1]: 475 nM
Emax [2]: 85.8%
EC50 [2]: 1700 nM
Emax [3]: 42.8%
EC50 [3]: 604 nM

CCN(C)CCc1c[nH]c2ccc(C)c(OC)c12 [Example P-59, N-ethyl-2-(4-methoxy-5-methyl-1H-indol-3-yl)-N-methylethan-1-amine]
Emax [1]: 78%
EC50 [1]: 34.6 nM
Emax [2]: 90.5%
EC50 [2]: 43.8 nM
Emax [3]: 68.1%
EC50 [3]: 4710 nM

COc1c(C)ccc2[nH]cc(CCN(C)C(C)C)c12 [Example P-60, N-(2-(4-methoxy-5-methyl-1H-indol-3-yl)ethyl)-N-methylpropan-2-amine]
Emax [1]: 66.3%
EC50 [1]: 77.6 nM
Emax [2]: 72.2%
EC50 [2]: 198 nM
Emax [3]: 71%
EC50 [3]: 768 nM

CCN(CC)CCc1c[nH]c2ccc(C)c(OC)c12 [Example P-61, N, N-diethyl-2-(4-methoxy-5-methyl-1H-indol-3-yl)ethan-1-amine]
Emax [1]: 67.7%
EC50 [1]: 321 nM
Emax [2]: 75.8%
EC50 [2]: 444 nM
Emax [3]: 46.3%
EC50 [3]: > 10000 nM

CCN(CCc1c[nH]c2ccc(C)c(OC)c12)C(C)C [Example P-62, N-ethyl-N-(2-(4-methoxy-5-methyl-1H-indol-3-yl)ethyl)propan-2-amine]
Emax [1]: 41.9%
EC50 [1]: 319 nM
Emax [2]: 65.9%
EC50 [2]: 1290 nM
Emax [3]: 61.5%
EC50 [3]: 5320 nM

COc1c(C)ccc2[nH]cc(CCN(C(C)C)C(C)C)c12 [Example P-63, N-isopropyl-N-(2-(4-methoxy-5-methyl-1H-indol-3-yl)ethyl)propan-2-amine]
Emax [1]: 72.7%
EC50 [1]: 1570 nM
Emax [2]: 49.4%
EC50 [2]: 9660 nM
Emax [3]: 70.2%
EC50 [3]: 2250 nM

CCN(C)CCc1c[nH]c2ccc(C)c(O)c12 [Example P-64, 3-(2-(ethyl(methyl)amino)ethyl)-5-methyl-1H-indol-4-ol]
Emax [1]: 79%
EC50 [1]: 62.2 nM
Emax [2]: 61%
EC50 [2]: 141 nM
Emax [3]: 2.42%
EC50 [3]: ≥ 10000 nM

CCCN(C)CCc1c[nH]c2ccc(C)c(O)c12 [Example P-65, 5-methyl-3-(2-(methyl(propyl)amino)ethyl)-1H-indol-4-ol]
Emax [1]: 78.8%
EC50 [1]: 56.1 nM
Emax [2]: 66.3%
EC50 [2]: 175 nM
Emax [3]: 6.22%
EC50 [3]: ≥ 10000 nM

Cc1ccc2[nH]cc(CCN(C)C(C)C)c2c1O [Example P-66, 3-(2-(isopropyl(methyl)amino)ethyl)-5-methyl-1H-indol-4-ol]
Emax [1]: 94.7%
EC50 [1]: 91.9 nM
Emax [2]: 50.3%
EC50 [2]: 391 nM
Emax [3]: 2.07%
EC50 [3]: ≥ 10000 nM

CCN(CC)CCc1c[nH]c2ccc(C)c(O)c12 [Example P-67, 3-(2-(diethylamino)ethyl)-5-methyl-1H-indol-4-ol]
Emax [1]: 78.3%
EC50 [1]: 163 nM
Emax [2]: 78.2%
EC50 [2]: 922 nM
Emax [3]: 11.7%
EC50 [3]: ≥ 10000 nM

CCCN(CCC)CCc1c[nH]c2ccc(C)c(O)c12 [Example P-68, 3-(2-(dipropylamino)ethyl)-5-methyl-1H-indol-4-ol]
Emax [1]: 102%
EC50 [1]: 148 nM
Emax [2]: 78%
EC50 [2]: 871 nM
Emax [3]: 64.3%
EC50 [3]: ≥ 10000 nM

Cc1ccc2[nH]cc(CCN(C(C)C)C(C)C)c2c1O [Example P-69, 3-(2-(diisopropylamino)ethyl)-5-methyl-1H-indol-4-ol]
Emax [1]: 78.8%
EC50 [1]: 245 nM
Emax [2]: 70.2%
EC50 [2]: 3210 nM
Emax [3]: 66.9%
EC50 [3]: ≥ 10000 nM

CCN(C)CCc1c[nH]c2c(C)ccc(OC)c12 [Example P-80, N-ethyl-2-(4-methoxy-7-methyl-1H-indol-3-yl)-N-methylethan-1-amine]
Emax [1]: 30%
EC50 [1]: 113 nM
Emax [2]: 66.7%
EC50 [2]: 140 nM
Emax [3]: 0.74%
EC50 [3]: > 10000 nM
